Data on two compounds can be found in patent US10905735B2 (priority 2016, dated 2021).

Where two headings read alike, the source gives them in different places. Bridge positions count the residues as written; N and C are the ends. Peptide text beside a SMILES is read from it.

Data set [1] deals with Staphylococcus aureus Newman strain. The conditions noted are these: 5 mg/kg body weight, injected 30 minutes after infection; versus aseptic water control; one week.
Protocol: 1) Preparation of Staphylococcus aureus Newman Solution
Newman monoclonal strain with hemolytic circles is selected, 3 mL BHI medium is inoculated with the strain, and the strain is shook overlight at a speed of 220 rpm and a temperature of 37° C.
1 mL overnight strain is centrifuged at a speed of 5000 rpm for 2 min, and the supernatant is removed.
20 mL aseptic PBS is added for resuspension at a speed of 5000 rpm for 5 min, and the supernatant is removed.
5 mL aseptic PBS resuspended bacteria is diluted to OD600=0.
2) Establishment of Model of Bacteremia and Determination of Polypeptide Activity in BALB/c Mice
BALB/c mice (female, 8 weeks) are subjected to intraperitoneal injection of anesthetic (1% pentobarbital) (200 μL for each mouse).
Newman solution (OD600=0.2, 100 μL for each mouse) is injected into retrobulbar venous plexus.
After 30 minutes of infection, 6 mice are injected with polypeptide at enterocoelia (0.5 mg/mL, 200 μL for each mouse) and 7 mice in control are injected with sterile water (200 μL for each mouse).
The times of the mouse in one week are recorded and used for drawing survival curves.
In data set [2] the test system is production of the toxins of Staphylococcus aureus 04018 strain (MDBK cells readout). The data set is classed as cell-based. The settings on record: for Cell survival (%) / inhibitory effect on the production of the toxins of Staphylococcus aureus (in words): MDBK cells; for MDBK cell OD (M ± SD): OD 595 nm, MTT; for inhibitory effect on the production of the toxins of Staphylococcus aureus (in words): peptide in normal saline (MRK as suspension). As to the method: For the determination method for inhibitory level on the toxins of Staphylococcus aureus, please refer to literatures. (Yang G, et al. A novel peptide screened by phage display can mimic TRAP antigen epitope against Staphylococcus aureus infections. J Biol. Chem. 2005, 280: 27431-27435), details are as follows:
1) Staphylococcus aureus strain 04018 frozen in refrigerator is scribbed to a blood plate or BHI plate; cultured in an incubator for 16 hours until monoclonal colony is observed in the plate, and placed in a 4° C. refrigerator for standby use.
2) After 8 hours, the monoclonal colony in the plate is randomly selected, 25 mL test tubes of the BHI medium is inoculated with the monoclonal colony; and then the two test tubes are shook in a shaking table at a temperature of 37° C. at a speed of 200 rpm, the bacteria are collected after 16 hours, the bacteria solution in the two test tubes are mixed evenly for standby use.
3) The chemosynthetic peptide MRK and MRG and the positive control (the toxins of Staphylococcus aureus inhibitor protein TP) are dissolved in normal saline, diluted to different concentrations, and added to bacteria BHI medium. The final concentrations of small peptides are 0, 1.5, 5, 15, 50, 150 and 500 μg/mL respectively. The solvent control is the same amount of normal saline; the negative control is the BHI medium of Staphylococcus aureus; and a normal cell control is also provided.
4) The chemosynthetic peptides of different concentrations are co-incubated with Staphylococcus aureus 04018 and cultured for 6 hours, and then bacteria are collected. 700 μL bacterial suspensions are added to EP tubes, centrifuged at 8000 rpm for 5 min, supernatants are obtained, boiled at a temperature of 100° C. for 7 min, and centrifuged at a speed of 14000 rpm for 10 min. 10 μL supernatants are taken, added into a 96-microwell cell culture plate inoculated with 1×10<5>/mL MDBK cells. After continuous culture for 18-20 hours, 5 μL MTT solution (5 mg/mL) is added to each microwell, 100 μL 10% SDS+0.01M HCl solution is added to each microwell after 3 hours. After culture in the incubator at a temperature of 37° C. for 20 hours, detection at 595 nm and reading are carried out by an enzyme-linked immunometricmeter.

With `NC(=O)CC[C@@H]1NC(=O)[C@@H](N)CSSC[C@@H](C(=O)O)NC(=O)[C@H](Cc2ccc(O)cc2)NC(=O)[C@H](Cc2c[nH]c3ccccc23)NC(=O)[C@H](Cc2c[nH]cn2)NC(=O)[C@H](Cc2c[nH]c3ccccc23)NC(=O)[C@H](Cc2c[nH]c3ccccc23)NC(=O)[C@H](Cc2c[nH]cn2)NC1=O` [MRK, CQHWWHWYC] (H-CQHWWHWYC-OH; disulfide 1-9), the solubility is < 100 µg/mL. In addition, in data set [1], the “death / survival rate in bacteremia (in words)” value is “good inhibitory effect on Staphylococcus aureus infection in vivo”. In data set [2] (0.005 mg/mL peptide), the “Cell survival (%)” value is reported as 25% and the “MDBK cell OD (M ± SD)” value stood at 0.123 ± 0.011. In data set [2] (0.05 mg/mL peptide), the “Cell survival (%)” value came to 20% and the “MDBK cell OD (M ± SD)” value is given as 0.098 ± 0.014. In data set [2] (0.15 mg/mL peptide), the “Cell survival (%)” value was determined as 35% and the “MDBK cell OD (M ± SD)” value is 0.171 ± 0.001. Also, the “inhibitory effect on the production of the toxins of Staphylococcus aureus (in words)” value in data set [2] is given as “could not inhibit the production of the toxins”.
With “CH3(CH2)10CO-Gly-Cyclo(Cys-Gln-His-D-Trp-Trp-His-Trp-Tyr-Cys)-Arg-Arg-Arg-NH2 [MRG]”, the “death / survival rate in bacteremia (in words)” value in data set [1] is “survival rate is greatly improved”. Moreover, the “inhibitory effect on toxin production compared with TP protein (positive control)” value in data set [2] (5 μg/mL small peptide) is “greater than that of TP protein”. For the same compound, the “Cell survival (%)” value in data set [2] (0.005 mg/mL peptide) is on record as 60%; in data set [2] (0.05 mg/mL peptide), 92%; in data set [2] (0.15 mg/mL peptide), 96%. Also, the “MDBK cell OD (M ± SD)” value in data set [2] (0.005 mg/mL peptide) stood at 0.296 ± 0.001; in data set [2] (0.05 mg/mL peptide), 0.454 ± 0.015; in data set [2] (0.15 mg/mL peptide), 0.473 ± 0.004. Moreover, the “inhibitory effect on the production of the toxins of Staphylococcus aureus (in words)” value in data set [2] is on record as “obvious protective effect on the proliferation inhibition of MDBK cells”.
